Laboratory results reported in patent US5273986A, “Cycloalkylthiazoles” (Hoffmann-La Roche Inc., priority 1992, dated 1993).
Where two headings read alike, the source gives them in different places.

What was measured:
[1] = test system: LTD4-induced bronchoconstriction; assay: Antagonism of LTD4-induced bronchoconstriction in guinea pigs; format: in vivo, guinea pig (male, Hartley strain); settings: for ED50 / inhibition in vivo at 1 mg/kg: Cavia porcellus; for inhibition in vivo at 1 mg/kg: read-out: percent inhibition at 1 mg/kg p.o., LTD4-induced bronchoconstriction (ID50 not determined)
Description: Male guinea pigs (Hartley strain, Charles River) weighing 400-600 g were anesthetized with urethane (2 g/kg) intraperitoneally, and a polyethylene cannula was inserted into the jugular vein for intravenous drug administration. Tracheal pressure (cm of H2 O) was recorded from a Statham pressure transducer (P 32 AA). Propranolol was administered 5 minutes prior to challenge with LTD4. Two minutes later spontaneous breathing was arrested with succinylcholine chloride (1.2 mg/kg) administered intravenously, and the animals were ventilated with a Harvard (Model 680) small animal respirator set at 40 breaths/min and a 4.0 cc stroke volume. Control vehicle (DMSO) or test compound was administered through the cannula into the jugular vein 1 minute before the animals were challenged with a maximum constrictory dose of LTD4 ([…] I.V.) given intravenously. The change in tracheal pressure was averaged for control and drug-treated animals and percent inhibition was calculated. For determination of oral activity, animals were dosed with test compound or vehicle (PEG400) two hours prior to challenge with LTD4 ([…], i.v.).
The relative potency of test compounds administered by the intravenous and oral route was determined by administering increasing doses of test compound at a fixed pretreatment time. The median inhibitory dose (ID50 value) was determined by linear regression of log dose-responsecurves generated by at least 3 doses that caused statistically significant inhibition between 10 and 90%. The correlation coefficient for the regression line was always greater than 0.95. For determination of the time-course of inhibition for various compounds, the time between administration of compound and challenge with LTD4 was varied. Durations of action were defined as the time for inhibitory activity to decrease to 50%.

LTD4 receptor = target: T1, LTD4 receptor (Cavia porcellus, UniProt Q2NNR5); assay: LTD4 receptor ligand binding assay (inhibition of [3H]LTD4 specific binding, guinea pig lung membranes); settings: 20° C., 30 min
T1 construct: A lung homogenate was prepared from guinea pig lung membranes; from tissue; host or cells: guinea pig lung membranes
T1 sequence (Q2NNR5 1-340): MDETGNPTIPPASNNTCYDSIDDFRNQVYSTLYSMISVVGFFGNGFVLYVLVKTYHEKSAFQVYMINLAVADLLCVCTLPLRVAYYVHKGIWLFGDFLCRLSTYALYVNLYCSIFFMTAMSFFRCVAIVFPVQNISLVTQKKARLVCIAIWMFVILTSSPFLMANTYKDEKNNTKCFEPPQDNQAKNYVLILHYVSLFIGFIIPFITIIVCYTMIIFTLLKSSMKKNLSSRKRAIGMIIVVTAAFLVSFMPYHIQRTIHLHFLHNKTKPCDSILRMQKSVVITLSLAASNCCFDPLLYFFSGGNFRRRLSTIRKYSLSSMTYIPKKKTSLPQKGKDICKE
Description: A lung homogenate was prepared from guinea pig lung membranes and was resuspended in buffer containing 10 mM Tris.HCl (pH 7.5) (Hogaboom et al., Hogaboom, G. K., et al: Peptidoleukotrienes: distinct receptors for leukotriene C4 and D4 in the guinea pig lung. Biochem. Biophys. Res. Commun. 116: 1136-1143, 1983). Optimum assay conditions were determined with an assay mixture containing: 10 mM Tris.HCl (pH 7.5); 0.1% bovine serum albumin (BSA); 1 mM glycine; 1 mM cysteine; 3.5 nM [^3 H]LTD4 and the membrane preparation ([…] protein) in a final volume of […]. The incubation was carried out at 20° C. for 30 minutes. At 20° C., binding increased linearly with protein concentration, reached equilibrium in 20 minutes, was saturable, and was reversible upon addition of 1 mM unlabelled LTD4. Separation of bound from free [^3 H]LTD4 as performed by rapid filtration on GF/C glass fiber filters (Whatman International Ltd., Maidstone, England) and washing with two 4-ml aliquots of Tyrode solution (0.9 g/100 ml NaCl; 0.02 g/100 ml KCl; 0.02 g/100 ml CaCl2; 0.01 g/100 ml MgCl2; 0.1 g/100 ml glucose; 0.1 g/100 ml NaHCO3; 0.005 g/100 ml NaH2 PO4) containing 0.1% BSA. Radioactivity remaining on the filters was measured in 10 ml of Aquasol. Specific binding, was defined as that displaced by 1 mM unlabelled LTD4, and was 95% of total binding.
The inhibition of [^3 H]LTD4 specific binding by an antagonist is related to the LTD4 content of that sample by regression analysis from a "standard curve" of the inhibition of [^3 H]LTD4 specific binding by nonlabeled LTD4. The median inhibitory concentration (IC50 value) was determined by linear regression of log concentration-response curves generated by at least 3 concentrations that caused statistically significant inhibition between 10 and 90%. Results are expressed as mean±S. E. M. (standard error of the mean) of n independent experiments (separate receptor batches) conducted in duplicates.

[2] = iv, 1 min, I.V., compound 1 minute before LTD4 challenge, read-out: ID50 I.V., LTD4-induced bronchoconstriction
[3] = po, 2 h, p.o., compound two hours prior to LTD4 challenge, read-out: ID50 p.o., LTD4-induced bronchoconstriction
[4] = po, 2 h, p.o., 1 mg/kg, compound two hours prior to LTD4 challenge

SMILES | IC50 (LTD4 receptor) [nM] | ED50 [1, 2] [mg/kg] | ED50 [1, 3] [mg/kg] | inhibition in vivo at 1 mg/kg [1, 4] [%] | percent inhibition at 1 mg/kg I.V., LTD4-induced bronchoconstriction (ID50 not determined) ([1]; I.V., 1 mg/kg, compound 1 minute before LTD4 challenge) [%]
O=C(Cc1ccccc1C(=O)O)Nc1cccc(/C=C/c2nc(C3CC3)cs2)c1 [Example 2, (E)-2-[2-[3-[2-[4-(Cyclopropyl)-2-thiazolyl]ethenyl]phenylamino]-2-oxoethyl]benzoic acid] | 3 | 0.01 | 0.22 | – | –
O=C(Cc1ccccc1C(=O)O)Nc1cccc(/C=C/c2nc(C3CCC3)cs2)c1 [Example 3, (E)-2-[2-[3-[2-[4-(Cyclobutyl)-2-thiazolyl]ethenyl]phenylamino]-2-oxoethyl]benzoic acid] | 3 | 0.01 | 0.22 | – | –
O=C(O)Cc1ccccc1CC(=O)Nc1cccc(/C=C/c2nc(C3CCC3)cs2)c1 [Example 13, (E)-2-[2-[3-[2-[4-(cyclobutyl)-2-thiazolyl]ethenyl]phenylamino]-2-oxoethyl]benzeneacetic acid] | 1000 | 0.01 | 0.78 | – | –
CC(C)c1csc(/C=C/c2cccc(NC(=O)Cc3ccccc3CC(=O)O)c2)n1 [Example 14, (E)-2-[2-[3-[2-[4-(1-Methylethyl)-2-thiazolyl]ethenyl]phenylamino]-2-oxoethyl]benzene acetic acid] | 1000 | 0.05 | – | 41 ± 8 | –

Further lines, with some results ahead:

IC50 (LTD4 receptor) [nM] | SMILES | ED50 [1, 2] [mg/kg] | ED50 [1, 3] [mg/kg] | inhibition in vivo at 1 mg/kg [1, 4] [%] | percent inhibition at 1 mg/kg I.V., LTD4-induced bronchoconstriction (ID50 not determined) ([1]; I.V., 1 mg/kg, compound 1 minute before LTD4 challenge) [%]
1000 | CC(C)c1csc(/C=C/c2cccc(NC(=O)Cc3cccc(CC(=O)O)c3)c2)n1 [Example 15, (E)-3-[2-[3-[2-[4-(1-Methylethyl)-2-thiazolyl]ethenyl]phenylamino]-2-oxoethyl]phenylacetic acid] | – | – | – | 40 ± 7
900 | CC(C)c1csc(/C=C/c2cc(NC(=O)Cc3ccccc3C(=O)O)ccc2Cl)n1 [Example 17e, (E)-2-[2-[4-Chloro-3-[2-[4-(1-methylethyl)-2-thiazolyl]ethenyl]phenylamino]-2-oxoethyl]benzoic acid] | 0.28 | – | 26 ± 7 | –
